In this assay the target is recombinant human Vps34 (Homo sapiens, UniProt Q8NEB9). Description: Vps34 KinaseGlo assay. It counts as biochemical. The following applies: KinaseGlo luminescence ATP detection; PI/OG substrate; 1 μM ATP; room temperature; 8 concentrations, n=2. On the procedure:
It was then resuspended in 3% OctylGlucoside by vortexing and stored at 4° C. 5 μL of a mix of PI/OG with recombinant human Vps34 were added. Kinase reactions were started by addition of 5 μl of ATP-mix containing in a final volume 10 μL 10 mM TRIS-HCl pH 7.5, 3 mM MgCl2, 50 mM NaCl, 0.05% CHAPS, 1 mM DTT and 1 μM ATP, and occurred at room temperature. Reactions were stopped with 10 μl of KinaseGlo and plates were read 10 minutes later in a Synergy2 reader using an integration time of 0.1 seconds per well.

Chain of recombinant human Vps34 (Q8NEB9 whole entry): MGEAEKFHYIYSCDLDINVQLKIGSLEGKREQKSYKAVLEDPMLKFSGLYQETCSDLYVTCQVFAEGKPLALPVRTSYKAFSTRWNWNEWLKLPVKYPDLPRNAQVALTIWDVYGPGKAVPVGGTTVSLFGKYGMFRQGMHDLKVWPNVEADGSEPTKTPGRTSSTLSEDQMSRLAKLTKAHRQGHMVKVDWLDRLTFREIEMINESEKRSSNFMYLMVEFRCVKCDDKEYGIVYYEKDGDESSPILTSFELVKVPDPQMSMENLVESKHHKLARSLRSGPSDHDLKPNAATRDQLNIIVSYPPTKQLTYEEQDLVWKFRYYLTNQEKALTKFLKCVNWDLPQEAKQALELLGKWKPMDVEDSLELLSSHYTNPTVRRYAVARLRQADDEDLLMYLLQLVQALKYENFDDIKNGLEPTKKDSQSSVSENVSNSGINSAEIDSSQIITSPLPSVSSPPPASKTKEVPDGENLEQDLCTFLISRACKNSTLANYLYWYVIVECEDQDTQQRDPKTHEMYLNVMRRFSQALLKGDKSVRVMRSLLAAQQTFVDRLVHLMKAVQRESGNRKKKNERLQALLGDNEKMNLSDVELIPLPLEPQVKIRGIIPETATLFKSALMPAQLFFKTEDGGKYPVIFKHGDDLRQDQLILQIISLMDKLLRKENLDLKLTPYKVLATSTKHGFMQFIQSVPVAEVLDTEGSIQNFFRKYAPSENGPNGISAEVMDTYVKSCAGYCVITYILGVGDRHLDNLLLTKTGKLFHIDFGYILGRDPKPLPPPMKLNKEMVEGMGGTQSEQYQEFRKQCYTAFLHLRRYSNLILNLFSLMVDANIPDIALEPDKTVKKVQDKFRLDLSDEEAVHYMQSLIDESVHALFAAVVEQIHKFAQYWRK

As to `CNc1ncc(-c2ccnc(NC3CCC3)n2)c(CC2CC2)n1` [Example 14f, N^2-cyclobutyl-4′-(cyclopropylmethyl)-N^2′-methyl-4,5′-bipyrimidine-2,2′-diamine], the IC50 was 722 nM.
As for `CN(C)c1cccc(Nc2nccc(-c3cnc(N)nc3CC3CC3)n2)c1` [Example 15y, 4′-(cyclopropylmethyl)-N^2-(3-(dimethylamino)phenyl)-4,5′-bipyrimidine-2,2′-diamine], the figure is 231 nM; as for `CC(C)CNc1ncc(-c2ccnc(Nc3ccncc3)n2)c(CC2CC2)n1` [Example 10d, 4′-(cyclopropylmethyl)-N^2′-isobutyl-N^2-(pyridin-4-yl)-4,5′-bipyrimidine-2,2′-diamine], 72 nM.
As for `Cc1cc(Nc2nccc(-c3cnc(N)nc3CC3CC3)n2)on1` [Example 15h, 4′-Cyclopropylmethyl-N^2-(3-methyl-isoxazol-5-yl)-[4,5′]bipyrimidinyl-2,2′-diamine], the figure is 48 nM; as for `CNc1ncc(-c2ccnc(Nc3cc(OC)cc(OC)c3)n2)c(CC2CC2)n1` [Example 14p, 4′-(cyclopropylmethyl)-N^2-(3,5-dimethoxyphenyl)-N^2′-methyl-4,5′-bipyrimidine-2,2′-diamine], 5170 nM.
As for `CC(C)(O)CNc1ncc(-c2ccnc(N[C@H]3CC[C@H](NS(C)(=O)=O)CC3)n2)c(CC2CC2)n1` [Example 16g, N-((1r,4r)-4-(4′-(cyclopropylmethyl)-2′-(2-hydroxy-2-methylpropylamino)-4,5′-bipyrimidin-2-ylamino)cyclohexyl)methanesulfonamide], the figure is 872 nM; as for `CNc1ncc(-c2ccnc(Nc3ccncc3)n2)c(CC2CC2)n1` [Example 14c, 4′-(cyclopropylmethyl)-N^2′-methyl-N^2-(pyridin-4-yl)-4,5′-bipyrimidine-2,2′-diamine], 37 nM.
On to `Nc1ncc(-c2ccnc(NCc3ccco3)n2)c(CC2CC2)n1` [Example 15k, 4′-(cyclopropylmethyl)-N^2-(furan-2-ylmethyl)-4,5′-bipyrimidine-2,2′-diamine], for which the 50% inhibitory concentration (IC50) came out at 781 nM.
Next, `CNc1ncc(-c2ccnc(Nc3cccnc3)n2)c(CC2CC2)n1` [Example 14l, 4′-(cyclopropylmethyl)-N^2′-methyl-N^2-(pyridin-3-yl)-4,5′-bipyrimidine-2,2′-diamine]: 48 nM.
Next, `CC(=O)Nc1ccc(Nc2nccc(-c3cnc(NCC(C)(C)O)nc3CC3CC3)n2)cc1` [Example 16f, N-(4-(4′-(cyclopropylmethyl)-2′-(2-hydroxy-2-methylpropylamino)-4,5′-bipyrimidin-2-ylamino)phenyl)acetamide]: 138 nM; `c1cc(Nc2nccc(-c3cncnc3CC3CC3)n2)ccn1` [Example 10v, 4′-(cyclopropylmethyl)-N-(pyridin-4-yl)-4,5′-bipyrimidin-2-amine]: 214 nM; `C[C@H](CO)Nc1ncc(-c2ccnc(Nc3ccncc3)n2)c(CC2CC2)n1` [Example 10p, (R)-2-(4′-(cyclopropylmethyl)-2-(pyridin-4-ylamino)-4,5′-bipyrimidin-2′-ylamino)propan-1-ol]: 210 nM.
In the case of `OCCNc1ncc(-c2ccnc(Nc3ccncc3)n2)c(CC2CC2)n1` [Example 10m, 2-(4′-(cyclopropylmethyl)-2-(pyridin-4-ylamino)-4,5′-bipyrimidin-2′-ylamino)ethanol], the IC50 is 11.5 nM.
Consider `CC(C)(C)CNc1ncc(-c2ccnc(Nc3ccncc3)n2)c(CC2CC2)n1` [Example 10r, 4′-(cyclopropylmethyl)-N2′-neopentyl-N2-(pyridin-4-yl)-4,5′-bipyrimidine-2,2′-diamine], for which the IC50 amounted to 85 nM.
Consider `CNc1ncc(-c2ccnc(Nc3ccc(OC)nc3)n2)c(CC2CC2)n1` [Example 14a, 4′-Cyclopropylmethyl-N^2-(6-methoxy-pyridin-3-yl)-N^2′-methyl-[4,5′]bipyrimidinyl-2,2′-diamine], for which the IC50 was determined as 115 nM.
In the case of `N#Cc1ccc(Nc2nccc(-c3cnc(N)nc3CC3CC3)n2)cc1` [Example 15x, 4-(2′-amino-4′-(cyclopropylmethyl)-4,5′-bipyrimidin-2-ylamino)benzonitrile], the IC50 was 27 nM.
As for `CC(C)Nc1ncc(-c2ccnc(Nc3ccncc3)n2)c(CC2CC2)n1` [Example 12a, 4′-Cyclopropylmethyl-N^2′-isopropyl-N^2-pyridin-4-yl-[4,5′]bipyrimidinyl-2,2′-diamine], the figure is 34.5 nM; as for `Nc1ncc(-c2ccnc(Nc3ccccn3)n2)c(CC2CC2)n1` [Example 15e, 4′-(cyclopropylmethyl)-N^2-(pyridin-2-yl)-4,5′-bipyrimidine-2,2′-diamine], 196 nM.
For the compound `c1cc(Nc2nccc(-c3cnc(NC4CCC4)nc3CC3CC3)n2)ccn1` [Example 10f, N^2′-cyclobutyl-4′-(cyclopropylmethyl)-N^2-(pyridin-4-yl)-4,5′-bipyrimidine-2,2′-diamine], the IC50 was found to be 45.5 nM.
As for `Nc1ncc(-c2ccnc(Nc3ccc4[nH]ccc4c3)n2)c(CC2CC2)n1` [Example 15l, 4′-(cyclopropylmethyl)-N^2-(1H-indol-5-yl)-4,5′-bipyrimidine-2,2′-diamine], the figure is 25 nM.
As for `CCNc1ncc(-c2ccnc(Nc3ccncc3)n2)c(CC2CC2)n1` [Example 10b, 4′-(cyclopropylmethyl)-N^2′-ethyl-N^2-(pyridin-4-yl)-4,5′-bipyrimidine-2,2′-diamine], the figure is 20 nM.
For `O[C@H]1CC[C@H](Nc2nccc(-c3cncnc3CC3CC3)n2)CC1` [Example 6a, Trans-4-{[4′-(cyclopropylmethyl)-4,5′-bipyrimidin-2-yl]amino}cyclohexanol], the IC50 worked out at 1000 nM.
As for `Cc1ncc(-c2ccnc(N[C@H]3CC[C@H](O)CC3)n2)c(CC2CC2)n1` [Example 6c, (1r,4r)-4-(4′-(cyclopropylmethyl)-2′-methyl-4,5′-bipyrimidin-2-ylamino)cyclohexanol], the figure is 775 nM; as for `CCC(C)Nc1ncc(-c2ccnc(Nc3ccncc3)n2)c(CC2CC2)n1` (stereo not shown) [Example 10s, N^2′-sec-butyl-4′-(cyclopropylmethyl)-N^2-(pyridin-4-yl)-4,5′-bipyrimidine-2,2′-diamine], 51.5 nM; as for `CNc1ncc(-c2ccnc(N[C@H]3CC[C@H](O)CC3)n2)c(CC2CC2)n1` [Example 6e, (1r, 4r)-4-(4′-(cyclopropylmethyl)-2′-(methylamino)-4,5′-bipyrimidin-2-ylamino)cyclohexanol], 111 nM.
`CNc1ncc(-c2ccnc(N[C@H]3CC[C@H](OC)CC3)n2)c(CC2CC2)n1` [Example 14o, 4′-(cyclopropylmethyl)-N^2-((1r,4r)-4-methoxycyclohexyl)-N^2′-methyl-4,5′-bipyrimidine-2,2′-diamine]: the IC50 came to 374 nM.
As to `Nc1ncc(-c2ccnc(N[C@H]3CC[C@H](O)CC3)n2)c(CC2CC2)n1` [Example 6b, (1r, 4r)-4-(2′-amino-4′-(cyclopropylmethyl)-4,5′-bipyrimidin-2-ylamino)cyclohexanol], the IC50 was found to be 264 nM.
Next, `CCc1ncc(-c2ccnc(N[C@H]3CC[C@H](O)CC3)n2)c(CC2CC2)n1` [Example 6d, (1r,4r)-4-(4′-(cyclopropylmethyl)-2′-ethyl-4,5′-bipyrimidin-2-ylamino)cyclohexanol]: 728 nM.

A word on the IC50: it is the concentration that inhibits the measured activity by half.

The record behind these values is US8901147B2, “Bi-heteroaryl compounds as Vps34 inhibitors” (Novartis AG, priority 2010, dated 2014).
